Where “and” joins values, the source holds several entries; their conditions need not be identical. Equal values may be shown once. Calls of active or inactive are those of the source.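 The calls were made as follows: active = compounds cutting yeast growth whose half-maximal concentration is at most twice their top valid dose; inconclusive = flat growth loss of 30 to 70 percent, or poor fit; inactive = the rest.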
System: Candida glabrata growth in glycerol, OD600, 48 h
Test: C. glabrata growth inhibition on glycerol, dose response, glycerol medium, OD600, powder samples, set 2 (AID 623903)
Settings: not given

| SMILES | AC50 |
| --- | --- |
| Cc1ccc(N2C(=S)N(C(=O)OC(C)C)C(=O)C23CCCCC3)cc1 | 638 nM |
| CCOC(=O)N1C(=O)C2(CCCCC2)N(c2ccc(F)cc2)C1=S | < 23.5 nM |
| CCOC(=O)N1C(=O)C2(CCCCC2)N(C(C)C)C1=S | 2750 nM |
| CCOC(=O)N1C(=O)C2(CCCCC2)N(c2cccc(C)c2)C1=S | 86.6 nM |
| CCOC(=O)N1C(=O)C2(CCCCC2)N(c2ccc(Cl)cc2)C1=S | < 23.5 nM |
| CCOC(=O)N1C(=O)C2(CCCCC2)N(c2ccc(C(C)C)cc2)C1=S | 829 nM |
| CCOC(=O)N1C(=O)C2(CCCCC2)N(c2ccc(C)cc2)C1=S | 56.4 nM and 45.2 nM |
| CCOC(=O)N1C(=O)C2(CCCCC2)N(Cc2ccccc2)C1=S | < 23.5 nM |
| CCCC(=O)N1C(=O)C2(CCCCC2)N(c2ccc(C)cc2)C1=S | 102 nM |
| CCOC(=O)N1C(=S)N(c2ccc(C)cc2)C2(CCCCC2)C1=NCc1ccccc1 | 3750 nM |
| CCOC(=O)N1C(=O)C2(CCCCC2)N(c2ccc(C(F)(F)F)cc2)C1=S | 44.3 nM |
| Cc1ccc(N2C(=S)N(C(=O)OCc3ccccc3)C(=O)C23CCCCC3)cc1 | 5540 nM |
| CC1/C=C/C=C\C=C\C=C\C=C\C=C\C=C\C(O[C@H]2OC(C)C(O)C(N)C2O)CC2OC(O)(CC(O)CC(O)C(O)CCC(O)CC(O)CC(=O)OC(C)C(C)C1O)CC(O)C2C(=O)O (stereo partly drawn) | 205 nM |
| Cc1ccc(N2C(=S)NC(=O)C23CCOCC3)cc1 | > 12000 nM (inactive) |
| CCOC(=O)N1C(=O)C2(CCOCC2)N(c2ccc(C)cc2)C1=S | 1480 nM |
| CCOC(=O)N1C(=O)C2(CCCCC2)N(c2ccc(OC)cc2)C1=S | 255 nM |
| CCCCN1C(=O)N(c2ccc(C)cc2)C2(CCCCC2)C1=S | > 12000 nM (inactive) |
| CCCCN1C(=O)C2(CCCCC2)N(c2ccc(C)cc2)C1=S | > 12000 nM (inactive) |
| CCOC(=O)N1C(=O)C2(CCCCC2)N(c2ccc(-c3ccccc3)cc2)C1=S | 242 nM |
| CCOC(=O)N1C(=O)C2(CCC2)N(c2ccc(C)cc2)C1=S | 2510 nM |
| CCOC(=O)N1C(=O)C2(CCCCC2)N(c2ccccc2)C1=S | 28.9 nM |
| CCOC(=O)N1C(=O)C2(CCCCC2)N(c2ccccc2C)C1=S | 541 nM |
| CCOC(=O)N1C(=O)C2(CCCCC2)N(c2ccc(C(C)(C)C)cc2)C1=S | 1980 nM |
| CCOC(=O)N1C(=O)C2(CCCCC2)N(c2ccc(CC)cc2)C1=S | 133 nM |
| CCCOC(=O)N1C(=O)C2(CCCCC2)N(c2ccc(C)cc2)C1=S | 95.3 nM |
| COC(=O)N1C(=O)C2(CCCCC2)N(c2ccc(C)cc2)C1=S | 136 nM |
| CCCc1ccc(N2C(=S)N(C(=O)OCC)C(=O)C23CCCCC3)cc1 | 629 nM |
| CCOC(=O)N1C(=O)C2(CCCCC2)N(c2ccc(C#N)cc2)C1=S | 67.2 nM |
| CCOC(=O)N1C(=O)C2(CCCC2)N(c2ccc(C)cc2)C1=S | 315 nM |

System: not listed separately
Test: as above
Settings: Candida glabrata growth in glycerol, OD600, 48 h; at 6 µM (top of the series)

| SMILES | growth change, negative = inhibition |
| --- | --- |
| Cc1ccc(N2C(=S)N(C)C(=O)C23CCCCC3)cc1 | -20.3% (inactive) |
| Cc1ccc(N2CC(=O)NC2=S)cc1 | 3.32% (inactive) |
| Cc1ccc(N2C(=S)N(S(C)(=O)=O)C(=O)C23CCCCC3)cc1 | 1.2% (inactive) |
| CCOC(=O)N1C(=S)NC(=O)C12CCCCC2 | 11.1% (inactive) |
| CCOC(=O)N1C(=S)N(c2ccc(C)cc2)C(=O)C12CCCCC2 | 14.3% (inactive) |
| CCOC(=O)N1C(=O)C2(CCCCC2)NC1=S | -2.7% (inactive) |
| Cc1ccc(N2C(=S)N(C(=O)Oc3ccccc3)C(=O)C23CCCCC3)cc1 | -4.17% (inactive) |
| Cc1ccc(N2C(=O)N(C)C(=O)C23CCCCC3)cc1 | 24.2% (inactive) |
| CCCCN1C(=O)N(c2ccc(C)cc2)C2(CCCCC2)C1=O | -2.19% (inactive) |
| Cc1ccc(N2C(=O)C(=O)NC2=S)cc1 | 19.6% (inactive) |
| O=C1NC(=S)N(c2ccccc2)C12CCCCC2 | 21.1% (inactive) |
| Cc1ccc(N2C(=S)NC(=O)C23CCC3)cc1 | 3.27% (inactive) |
| Cc1ccc(N2C(=O)C3(CCCCC3)NC2=S)cc1 | 5.63% (inactive) |
| Cc1ccc(N2C(=S)NC(=O)C23CCCC3)cc1 | -31.4% (inactive) |
| Cc1ccc(N2C(=S)NC(=O)C2(C)C)cc1 | -2.42% (inactive) |
| Cc1ccc(N2C(=O)NC(=O)C23CCCCC3)cc1 | 44.5% (inactive) |
| Cc1ccc(N2C(=S)NC(=O)C23CCCCC3)cc1 | -3.05% (inactive) |
| O=C1NC(=S)NC12CCCCC2 | 10.1% (inactive) |
| CCOC(=O)N1C(=O)N(c2ccc(C)cc2)C2(CCCCC2)C1=O | -38.8% (inactive) |
| O=C1NC(=S)N(Cc2ccccc2)C12CCCCC2 | -0.552% (inactive) |
| Cc1ccc(N2CC(=O)NC2=O)cc1 | 28.9% (inactive) |
| O=C1NC(=S)N(c2ccc(F)cc2)C12CCCCC2 | -17.4% (inactive) |
| CCOC(=O)N1C(=O)C(C)(C)N(c2ccc(C)cc2)C1=S | -13.4% (inactive) |
| CC(C)N1C(=S)NC(=O)C12CCCCC2 | 5.61% (inactive) |

Source: PubChem BioAssay AID623903 (Broad Institute, 2012)
